Reference: patent US20150196030A1, “HERBICIDAL COMPOSITION CONTAINING 4-AMINO-3-CHLORO-6-(4-CHLORO-2-FLUORO-3-METHOXYPHENYL) PYRIDINE-2-CARBOXYLIC ACID OR DERIVATIVES THEREOF, FLUROXYPYR OR DERIVATIVES THEREOF, AND PHENOXY AUXINS OR DERIVATIVES THEREOF” (DOW AGROSCIENCES LLC, priority 2014, published 2015)

Key:
Assay in all cases: Field trial, post-emergence weed control, visual percent control
Assay type in all cases: in vivo
[1] = test system: BRSNN: canola, volunteer (Brassica napus); conditions: SK
Description: (§1) Nine small plot field trials were established across various ecozones in Alberta, Saskatchewan, Manitoba and Ontario, Canada, between 2011 and 2014 to evaluate potential synergy between 1) halauxifen-methyl (100 grams acid equivalent per kilogram (g ae/kg)), fluroxypyr-meptyl as Starane II EC (333 grams acid equivalent per liter (g ae/L) fluroxypyr), and MCPA 2-ethylhexyl ester (MCPA ester; 600 g ae/L), 2) the halauxifen-methyl+fluroxypyr premix (16.25 g ae/L halauxifen-methyl and 250 g ae/L fluroxypyr-meptyl) and MCPA ester (600 g ae/L), and 3) halauxifen-methyl (100 g ae/kg), fluroxypyr-meptyl as Starane II EC (333 g ae/L fluroxypyr), and 2,4-D 2-ethylhexyl ester (2,4-D ester; 660 g ae/L). In trials evaluating synergy between halauxifen-methyl, fluroxypyr-meptyl, and MCPA ester, actives were applied individually at rates of 6.5, 100, and 420 grams acid equivalent per hectare (g ae/ha), respectively, and in a three-way combination at identical rates. When applied individually, halauxifen-methyl was applied in all trials with Turbocharge adjuvant (50% mineral oil/39.5% surfactant blend) at 0.5% volume per volume (v/v). In trials evaluating synergy between the halauxifen-methyl+fluroxypyr premix, and MCPA ester, premix and MCPA ester were applied individually at rates of 82 g ae/ha (5 g ae/ha halauxifen-methyl+77 g ae/ha fluroxypyr) or 106.5 g ae/ha (6.5 g ae/ha halauxifen-methyl+100 g ae/ha fluroxypyr), and 350 or 420 g ae/ha MCPA ester, respectively, and in a two-way combination at rates of 82 g ae/ha premix+350 g ae/ha MCPA ester or […] premix+420 g ae/ha MCPA ester. When applied individually, the halauxifen-methyl+fluroxypyr premix was applied at a rate of 106.5 g ae/ha without an adjuvant, or at a rate of 82 g ae/ha with Turbocharge adjuvant at 0.5% v/v. In trials evaluating synergy between halauxifen-methyl, fluroxypyr-meptyl, and 2,4-D ester, actives were applied individually at rates of 5, 77, and 350 grams acid equivalent per hectare (g ae/ha), respectively, and in a three-way combination at identical rates. When applied individually, halauxifen-methyl was applied with Intake adjuvant (586 grams per liter (g/L) paraffinic oil/242 g/L alkoxylated alcohol non-ionic surfactants) at 1% volume per volume (v/v).
(§2) Trials were established as randomized complete blocks (RCBD) with four replicates. Individual treatments were 2-3 meters (m) wide and 10-11 m long. An untreated control was included in each trial. All trial sites had naturally occurring populations of weeds, which in some trials were augmented with additional weed seeds during trial establishment.
(§3) Herbicides were applied with backpack, bicycle, or tractor-mounted sprayers using carbon dioxide (CO2) as a propellant. All sprayers delivered a uniform spray pattern that provided thorough coverage of the foliage using a water volume of 100-200 liters per hectare (L/ha). All herbicides were applied post-emergence in the spring to early-summer. At the time of herbicide applications, spring wheat, durum wheat, and winter wheat crops were at the four-leaf to three-node stage. Broadleaf weeds were at the seedling stage at the time of herbicide applications.
(§4) Foliar damage to target pest plants was visually assessed as percent control, compared to an untreated control plot. The assessments were based on a percent visual reduction in pest plant biomass and/or stand reduction of weed population. In general, three-to-four replicates were assessed for each treatment, and the results for each experiment (trial) are presented as overall average control. The efficacy of all treatments was assessed at 13-22 days after application (DAA) for an early season rating, 23-39 DAA for a mid-season rating, and 41-84 DAA for a late-season rating. The data were statistically analyzed using various statistical methods, generally including a Tukey's HSD Factorial Analysis of Variance with a significance level of 5%. […]

[2] = test system: TRFPR: red clover (Trifolium pratense); conditions: 84 DAA, ON, halauxifen-methyl 5, fluroxypyr-meptyl 77, 2,4-D ester 350 g ae/ha, each alone or three-way combination
Description: as §1, §2, §3, §4

[3] = test system: GAETE: hemp-nettle (Galeopsis tetrahit); conditions: 14 DAA, AB
Description: as §1, §2, §3, §4

[4] = test system: AMBTR: giant ragweed (Ambrosia trifida); conditions: 49 DAA, ON, halauxifen-methyl 5, fluroxypyr-meptyl 77, 2,4-D ester 350 g ae/ha, each alone or three-way combination
Description: as §1, §2, §3, §4

[5] = test system: STEME: chickweed, common (Stellaria media); conditions: 59 DAA, AB
Description: as §1, §2, §3, §4

[6] = test system: POLPE: lady's-thumb (Polygonum persicaria)
Description: as §1, §2, §3, §4

[7] = test system: ARTAB: absinth wormwood (Artemisia absinthium); conditions: 47 DAA, MB, premix 6.5 + 100 (106.5) g ae/ha, MCPA ester 420 g ae/ha, alone or combined
Description: as §1, §2, §3, §4

[8] = test system: AMBEL: ragweed, common (Ambrosia artemisiifolia); conditions: 28 DAA, ON, premix 5 + 77 (82) g ae/ha, MCPA ester 350 g ae/ha, alone or combined
Description: as §1, §2, §3, §4

[9] = test system: POLCO: wild buckwheat (Polygonum convolvulus); conditions: premix 6.5 + 100 (106.5) g ae/ha, MCPA ester 420 g ae/ha, alone or combined
Description: as §1, §2, §3, §4

[10] = 14 DAA, halauxifen-methyl 6.5, fluroxypyr-meptyl 100, MCPA ester 420 g ae/ha, each alone or three-way combination
[11] = 33 DAA, halauxifen-methyl 6.5, fluroxypyr-meptyl 100, MCPA ester 420 g ae/ha, each alone or three-way combination
[12] = halauxifen-methyl 6.5, fluroxypyr-meptyl 100, MCPA ester 420 g ae/ha, each alone or three-way combination
[13] = 14 DAA, AB, halauxifen-methyl 6.5, fluroxypyr-meptyl 100, MCPA ester 420 g ae/ha, each alone or three-way combination
[14] = 49 DAA, AB, halauxifen-methyl 6.5, fluroxypyr-meptyl 100, MCPA ester 420 g ae/ha, each alone or three-way combination
[15] = 57 DAA, AB, halauxifen-methyl 6.5, fluroxypyr-meptyl 100, MCPA ester 420 g ae/ha, each alone or three-way combination
[16] = 59 DAA, AB, halauxifen-methyl 6.5, fluroxypyr-meptyl 100, MCPA ester 420 g ae/ha, each alone or three-way combination
[17] = SK, 49 DAA or 57 DAA, halauxifen-methyl 6.5, fluroxypyr-meptyl 100, MCPA ester 420 g ae/ha, each alone or three-way combination
[18] = premix 6.5 + 100 (106.5) g ae/ha, MCPA ester 420 g ae/ha, alone or combined

CCCCCCC(C)OC(=O)COc1nc(F)c(Cl)c(N)c1Cl (centres unmarked) [Fluroxypyr-meptyl, 1-methylheptyl 2-[(4-amino-3,5-dichloro-6-fluoro-2-pyridinyl)oxy]acetate]
Obs: Observed percent weed control [1, 10]: 30% | Obs: Observed percent weed control [1, 11]: 20% | Obs: Observed percent weed control [2]: 12.4% | Obs: Observed percent weed control [3, 12]: 39% | Obs: Observed percent weed control [4]: 21.7% | Obs: Observed percent weed control [5, 12]: 15% | Obs: Observed percent weed control [6, 13]: 0% | Obs: Observed percent weed control [6, 14]: 0% | Obs: Observed percent weed control [6, 15]: 23% | Obs: Observed percent weed control [6, 16]: 61% | Obs: Observed percent weed control [6, 17]: 25%

CCCCC(CC)COC(=O)COc1ccc(Cl)cc1C (centres unmarked) [MCPA ester, 2-ethylhexyl 2-(4-chloro-2-methylphenoxy)acetate]
Obs: Observed percent weed control [1, 10]: 80% | Obs: Observed percent weed control [1, 11]: 95% | Obs: Observed percent weed control ([1]; 33 DAA, premix 6.5 + 100 (106.5) g ae/ha, MCPA ester 420 g ae/ha, alone or combined): 95% | Obs: Observed percent weed control [3, 12]: 31% | Obs: Observed percent weed control [3, 18]: 31% | Obs: Observed percent weed control [7]: 0% | Obs: Observed percent weed control [8]: 15% | Obs: Observed percent weed control [5, 12]: 0% | Obs: Observed percent weed control [5, 18]: 0% | Obs: Observed percent weed control [6, 13]: 0% | Obs: Observed percent weed control ([6]; 14 DAA, MB, premix 5 + 77 (82) g ae/ha, MCPA ester 350 g ae/ha, alone or combined): 38% | Obs: Observed percent weed control ([6]; 14 DAA, MB, premix 6.5 + 100 (106.5) g ae/ha, MCPA ester 420 g ae/ha, alone or combined): 38% | Obs: Observed percent weed control ([6]; 34 DAA, MB, premix 5 + 77 (82) g ae/ha, MCPA ester 350 g ae/ha, alone or combined): 40% | Obs: Observed percent weed control ([6]; 34 DAA, MB, premix 6.5 + 100 (106.5) g ae/ha, MCPA ester 420 g ae/ha, alone or combined): 40% | Obs: Observed percent weed control ([6]; 49 DAA (likely), MB, premix 6.5 + 100 (106.5) g ae/ha, MCPA ester 420 g ae/ha, alone or combined): 27% | Obs: Observed percent weed control [6, 14]: 0% | Obs: Observed percent weed control ([6]; 49 DAA, AB, premix 6.5 + 100 (106.5) g ae/ha, MCPA ester 420 g ae/ha, alone or combined): 0% | Obs: Observed percent weed control ([6]; 54 DAA, MB, premix 6.5 + 100 (106.5) g ae/ha, MCPA ester 420 g ae/ha, alone or combined): 38% | Obs: Observed percent weed control [6, 15]: 0% | Obs: Observed percent weed control ([6]; 57 DAA, AB, premix 6.5 + 100 (106.5) g ae/ha, MCPA ester 420 g ae/ha, alone or combined): 0% | Obs: Observed percent weed control [6, 16]: 35% | Obs: Observed percent weed control ([6]; 59 DAA, AB, premix 6.5 + 100 (106.5) g ae/ha, MCPA ester 420 g ae/ha, alone or combined): 35% | Obs: Observed percent weed control [6, 17]: 30% | Obs: Observed percent weed control ([9]; 35 DAA, MB): 0% | Obs: Observed percent weed control ([9]; 47 DAA, MB): 0% | Obs: Observed percent weed control ([9]; 63 DAA, AB): 43%

CCCCC(CC)COC(=O)COc1ccc(Cl)cc1Cl (centres unmarked) [2,4-D ester, 2-ethylhexyl(2,4-dichlorophenoxy)acetate]
Obs: Observed percent weed control [2]: 7.4% | Obs: Observed percent weed control [4]: 83%

COC(=O)c1nc(-c2ccc(Cl)c(OC)c2F)cc(N)c1Cl [Halauxifen-methyl, methyl 4-amino-3-chloro-6-(4-chloro-2-fluoro-3-methoxyphenyl)-2-pyridinecarboxylate]
Obs: Observed percent weed control [1, 10]: 20% | Obs: Observed percent weed control [1, 11]: 15% | Obs: Observed percent weed control [2]: 15% | Obs: Observed percent weed control [3, 12]: 79% | Obs: Observed percent weed control [4]: 20% | Obs: Observed percent weed control [5, 12]: 24% | Obs: Observed percent weed control [6, 13]: 0% | Obs: Observed percent weed control [6, 14]: 0% | Obs: Observed percent weed control [6, 15]: 0% | Obs: Observed percent weed control [6, 16]: 33% | Obs: Observed percent weed control [6, 17]: 10%
